Measured values published in US6395759B1, “Substituted benzamide derivatives and pharmaceutical compositions containing them” (SmithKline Beecham p.l.c., priority 1999, dated 2002).

Legend:
[1] = test system: electrically-induced seizures in mice; test: Maximal electroshock seizure threshold (MEST) test; assay type: in vivo; conditions: 10 mg/kg po, suspension in methyl cellulose, one hour post dosing
Description: The maximal electroshock seizure threshold (MEST) test in rodents is particularly sensitive for detecting potential anticonvulsant properties^1. In this model, anticonvulsant agents elevate the threshold to electrically-induced seizures whilst proconvulsants lower the seizure threshold.
Mice (naive, male, Charles River, U.K. CD-1 strain, 25-30 g) are randomly assigned to groups of 10-20 and dosed orally or intraperitoneally at a dose volume of 10 ml/kg with various doses of compound (0.3-300 mg/kg) or vehicle. Mice are then subjected at 30 or 60 min post dose to a single electroshock (0.1 sec, 50 Hz, sine wave form) administered via corneal electrodes. The mean current and standard error required to induce a tonic seizure in 50% (CC50) of the mice in a particular treatment group is determined by the ‘up and down’ method of Dixon and Mood (1948)^2. Statistical comparisons between vehicle- and drug-treated groups are made using the method of Litchfield and Wilcoxon (1949)^3.
In control animals the CC50 is usually 14-18 mA. […] If a tonic convulsion does occur, then the current is decreased, and so on until all the animals in the group have been tested.
The percentage increase or decrease in CC50 for each group compared to the control is calculated. […]

[2] = target: novel receptor obtainable from rat forebrain tissue; test: [3H]-Compound A radioligand binding assay; conditions: competition with [3H]-Compound A (20 nM)
Description: WO 92/22293 (SmithKline Beecham) discloses compounds having anti-convulsant activity, including inter alia the compound trans-(+)-6-acetyl-4S-(4-fluorobenzoylamino)-3,4-dihydro-2,2-dimethyl-2H-1-benzopyran-3R-ol (hereinafter referred to as Compound A). […] The affinity of test compounds to the novel receptor site is assessed as follows.
Whole forebrain tissue is obtained from rats. The tissue is first homogenised in buffer (usually 50 mM Tris/HCl, pH 7.4). The homogenised tissue is washed by centrifugation and resuspension in the same buffer, then stored at −70° C. until used.
To carry out the radioligand binding assay, aliquots of tissue prepared as above (usually at a concentration of 1-2 mg protein/ml) are mixed with aliquots of [3H]-Compound A dissolved in buffer. The final concentration of [3H]-Compound A in the mixture is usually 20 nM. The mixture is incubated at room temperature for 1 hour. [3H]-Compound A bound to the tissue is then separated from unbound [3H]-Compound A by filtration through Whatman GF/B glass fibre filters. The filters are then washed rapidly with ice-cold buffer. The amount of radioactivity bound to the tissue trapped on the filters is measured by addition of liquid scintillation cocktail to the filters followed by counting in a liquid scintillation counter. […]

## COc1cc(C(C)(C)C)ccc1C(=O)Nc1cccc(C2CCCN2)c1 (racemic) [Example 1, (±)-4-tert-Butyl-2-methoxy-N-(3-pyrrolidin-2-yl-phenyl)-benzamide, monohydroclhloride]
[1]
  increase in seizure threshold (CC50) compared to control: 53%
[2]
  pKi value: greater than 7
